The record followed here is ChEMBL document CHEMBL3232739, “Discovery of a potent and dissociated non-steroidal glucocorticoid receptor agonist containing an alkyl carbinol pharmacophore” (Bioorg Med Chem Lett, 2014).

Values after ≈ are worked out from the molar mass of the structure shown.

For data set [1], the target named is T1, Mineralocorticoid receptor (Homo sapiens, UniProt P08235).
T1 sequence (P08235 whole entry): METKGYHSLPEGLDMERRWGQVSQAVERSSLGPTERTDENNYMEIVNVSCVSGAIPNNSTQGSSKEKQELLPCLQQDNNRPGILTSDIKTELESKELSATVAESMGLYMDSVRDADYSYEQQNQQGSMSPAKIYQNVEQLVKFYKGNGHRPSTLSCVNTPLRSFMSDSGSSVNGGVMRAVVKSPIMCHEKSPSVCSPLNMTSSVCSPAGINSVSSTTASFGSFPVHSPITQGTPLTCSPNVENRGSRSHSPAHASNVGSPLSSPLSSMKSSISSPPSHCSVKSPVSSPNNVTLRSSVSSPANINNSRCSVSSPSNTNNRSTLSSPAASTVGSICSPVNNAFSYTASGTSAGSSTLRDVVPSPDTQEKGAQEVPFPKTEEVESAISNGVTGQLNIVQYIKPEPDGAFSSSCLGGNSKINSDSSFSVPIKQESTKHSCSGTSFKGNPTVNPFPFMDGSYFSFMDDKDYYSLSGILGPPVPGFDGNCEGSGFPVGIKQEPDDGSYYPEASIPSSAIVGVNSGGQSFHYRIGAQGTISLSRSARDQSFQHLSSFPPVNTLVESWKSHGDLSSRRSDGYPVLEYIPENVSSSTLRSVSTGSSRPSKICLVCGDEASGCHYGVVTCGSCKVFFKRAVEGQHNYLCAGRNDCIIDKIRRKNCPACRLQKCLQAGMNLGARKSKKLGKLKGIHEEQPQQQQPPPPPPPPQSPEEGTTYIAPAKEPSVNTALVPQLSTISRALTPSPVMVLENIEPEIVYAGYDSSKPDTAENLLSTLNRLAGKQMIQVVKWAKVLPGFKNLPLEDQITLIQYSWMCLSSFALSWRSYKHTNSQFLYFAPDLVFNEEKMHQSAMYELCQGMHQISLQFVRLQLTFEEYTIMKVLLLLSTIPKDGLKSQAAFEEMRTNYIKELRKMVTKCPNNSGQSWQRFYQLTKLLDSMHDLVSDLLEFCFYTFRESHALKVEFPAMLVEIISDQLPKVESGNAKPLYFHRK
Kind of data set: Displacement of TAMRA-labeled dexamethasone from mineralocorticoid receptor (unknown origin) by fluorescence polarization assay. On the technique in general: Polarisation of emitted light reports the rotation of a fluorescent probe.

The species entered for data set [2] is Homo sapiens. Kind of data set: Selectivity ratio of IC50 for progesterone receptor (unknown origin) to IC50 for glucocorticoid receptor (unknown origin).
Data set [3] is filed under the species Homo sapiens. The data set is described as follows: Selectivity ratio of IC50 for mineralocorticoid receptor (unknown origin) to IC50 for glucocorticoid receptor (unknown origin).
A short description of data set [4]: Clearance in Sprague-Dawley rat at 2 mg/kg, iv. The data set is classed as ADME, organism-based. Set-up: dose 2 mg/kg, route intravenous. The conditions noted are these: in vivo.
A short description of data set [5]: Volume of distribution at steady state in Sprague-Dawley rat at 2 mg/kg, iv. The data set is classed as ADME, organism-based. The arrangement: dose 2 mg/kg, route intravenous. The conditions noted are these: in vivo, read-out: Vdss.
Data set [6] in a line: AUC (infinity) in Sprague-Dawley rat at 30 mg/kg, po. The conditions noted are these: plasma. Set-up: time infinity, dose 30 mg/kg, route oral. The data set is classed as ADME, organism-based.
Data set [7] can be described thus: Equilibrium solubility of the compound at pH 7.4. The class given is physicochemical. The conditions noted are these: buffer.
The nature of data set [8]: Permeability across apical to basolateral side in human Caco2 cells. The class given is ADME, cell-based. The conditions noted are these: Caco-2, read-out: permeability. (Passage across Caco-2 layers is used to estimate intestinal permeability.)
Data set [9] concerns Mus musculus. Kind of data set: Antiarthritic activity in B10.RIII mouse collagen/complete Freund's adjuvant-induced arthritis model assessed as reduction of disease score at 30 mg/kg, po qd for 5 weeks relative to control. The class given is functional. The arrangement: scale not given: the % may be the effect or the level left.
In data set [10] the test system is Mus musculus. The data set is described as follows: Antiinflammatory activity in mouse assessed as inhibition of LPS-induced TNFalpha production at 1 mg/kg, po. The data set is classed as functional.
Data set [11] concerns Mus musculus. Kind of data set: Toxicity in B10.RIII mouse assessed as body fate level in serum at 100 mg/kg, po qd for 5 weeks relative to control. The arrangement: dose 100 mg/kg, route oral. The class given is organism-based. The conditions noted are these: in vivo, 840 h.
For data set [12], the system named is Mus musculus. The data set is described as follows: Toxicity in B10.RIII mouse assessed as triglyceride level in serum at 30 mg/kg, po qd for 5 weeks relative to control. The class given is organism-based. The arrangement: dose 30 mg/kg, route oral. The conditions noted are these: in vivo, 840 h.
Data set [13] has as its system Mus musculus. The data set is described as follows: Toxicity in B10.RIII mouse assessed as insulin level in serum at 30 mg/kg, po qd for 5 weeks relative to control. The class given is organism-based. Set-up: dose 30 mg/kg, route oral. The conditions noted are these: in vivo, 840 h.
The next data set concerns the target T2, Glucocorticoid receptor (Homo sapiens, UniProt P04150).
T2 sequence (P04150 whole entry): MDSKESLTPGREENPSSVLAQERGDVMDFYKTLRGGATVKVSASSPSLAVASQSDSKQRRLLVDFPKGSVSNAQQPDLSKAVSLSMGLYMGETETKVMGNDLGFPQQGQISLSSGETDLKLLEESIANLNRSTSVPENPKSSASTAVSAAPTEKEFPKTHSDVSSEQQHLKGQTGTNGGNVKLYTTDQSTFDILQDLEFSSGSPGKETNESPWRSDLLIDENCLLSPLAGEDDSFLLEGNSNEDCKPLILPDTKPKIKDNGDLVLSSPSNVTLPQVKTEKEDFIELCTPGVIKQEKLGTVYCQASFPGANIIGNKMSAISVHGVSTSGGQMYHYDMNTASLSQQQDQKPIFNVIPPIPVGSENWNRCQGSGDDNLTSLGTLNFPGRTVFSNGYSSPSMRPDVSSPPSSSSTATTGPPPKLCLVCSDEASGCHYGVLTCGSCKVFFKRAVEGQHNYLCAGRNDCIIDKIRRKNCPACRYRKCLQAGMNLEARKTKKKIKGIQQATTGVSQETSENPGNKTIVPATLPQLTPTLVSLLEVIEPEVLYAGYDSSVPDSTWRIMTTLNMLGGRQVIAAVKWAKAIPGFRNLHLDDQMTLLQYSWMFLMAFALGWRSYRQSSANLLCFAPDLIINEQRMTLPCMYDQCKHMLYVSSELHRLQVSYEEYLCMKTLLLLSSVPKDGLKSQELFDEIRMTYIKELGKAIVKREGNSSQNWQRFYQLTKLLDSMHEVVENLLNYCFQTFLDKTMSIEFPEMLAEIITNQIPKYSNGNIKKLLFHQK

Description for Glucocorticoid receptor: Agonist activity at glucocorticoid receptor in human foreskin fibroblasts assessed as inhibition of IL-1-induced IL-6 production by trans-repression assay

On to `Cc1ccc(F)cc1C(C)(C)C[C@@](O)(Cc1cc2cnccc2[nH]1)C(C)(C)C`, for which the values for the IC50 (in [1]; against Glucocorticoid receptor) were 420 nM and 27 nM, respectively. Also, the Ratio IC50 in the data set filed under Homo sapiens [2] and in the data set listed under Homo sapiens [3] was greater than 100 in each case. For the same compound, the clearance in [4] is 48 mL/min/kg. For the same compound, in data set [5], the Vd amounted to 4 L/kg. In data set [6], this compound had an AUC(0-inf) of 6730 ng·h/mL. Moreover, the solubility (thermodynamic) in [7] amounted to 15 µg/mL (≈ 39.2 µM). Further, the Papp A→B in data set [8] was 13.4 ×10⁻⁶ cm/s. In addition, the Activity in the data set with Mus musculus [9] was -51%; in the data set with Mus musculus [11], -3%; in the data set on Mus musculus [12] it was 29%; with Mus musculus [13], 60%. Moreover, the inhibition in vivo at 1 mg/kg in the data set on Mus musculus [10] stood at 82%.

The IC50 is the concentration at which inhibition is half-maximal. In general, clearance refers to the volume of plasma or blood freed of the substance per unit of time. Usually AUC(0-inf) stands for total exposure, with the tail of the curve extrapolated. As usually defined, the thermodynamic solubility is the concentration in solution at equilibrium with solid. As usually defined, the inhibition in vivo is the change of the read-out against control, counted positive when it falls.
